Laboratory results reported in US20210285031A1, “FRET BASED PROTEIN BIOSENSOR FOR DETECTION OF CYCLIC DINUCLEOTIDES” (University of Washington, priority 2020, published 2021).

Experiments:
[1] = target: T1, full length Lmo0553 fused to eCFP (N terminus) and eYFP (C terminus) (Listeria monocytogenes, UniProt Q8Y9H5); assay: FRET response, full length Lmo0553 fusion; format: biochemical
T1 construct: recombinant, purified
Source text: To leverage these structural rearrangements, the FRET pair eCFP and eYFP were respectively fused to the N and C termini of full length Lmo0553. […] Additional engineering may have allowed for the generation of a FRET biosensor utilizing full length Lmo0553, but without a response to optimize, these efforts would have been arduous and potentially unsuccessful.

STING = conditions: background; cited from earlier work
[2] = target: T2, CDA5 (eCFP-Lmo0553 Bateman domain (truncated at N-127)-eYFP FRET fusion; SEQ ID NO:36, Bateman domain SEQ ID NO:35) (Listeria monocytogenes, UniProt Q8Y9H5); assay: In vitro FRET measurement, CDA5
[3] = target: T3, CDA5 variant Y34A (parent CDA5, Lmo0553 Bateman domain) (Listeria monocytogenes, UniProt Q8Y9H5, Y34A); assay: DRaCALA binding assay, CDA5 Y34A
Protocol: (§3) It was hypothesized that by replacing the stabilizing tyrosine ring with an alanine (Y34A), c-di-AMP binding would be minimized in a manner unlikely to disrupt protein stability. […] Next, increasing concentrations of c-di-AMP were added to purified CDA5 and Y34A CDA5 and analyzed by plate reader assay for FRET response.

[4] = target: T3, CDA5 variant Y34A (parent CDA5, Lmo0553 Bateman domain); assay: In vitro FRET measurement, CDA5 Y34A; conditions: increasing concentrations of c-di-AMP
Protocol: as §3

[5] = target: T2, CDA5 (eCFP-Lmo0553 Bateman domain (truncated at N-127)-eYFP FRET fusion; SEQ ID NO:36, Bateman domain SEQ ID NO:35); assay: DRaCALA radioactive nucleotide binding assay, CDA5
[6] = target: Listeria monocytogenes Lmo0553, full length (Listeria monocytogenes, UniProt Q8Y9H5); assay: DRaCALA radioactive nucleotide binding assay, full length Lmo0553
BioSTING = target: T4, BioSTING (Mus musculus, UniProt Q3TBT3); assay: DRaCALA binding specificity: excess unlabeled nucleotides competing with [32P] 2′3′-cGAMP; set-up: species or system murine; conditions: 500 μM excess unlabeled nucleotide, ~1 nM [32P] 2′3′-cGAMP
T4 construct: made in house; host or cells: E. coli Rosetta (DE3)pLysS
T4 sequence (Q3TBT3 with tags, fused parts or gaps): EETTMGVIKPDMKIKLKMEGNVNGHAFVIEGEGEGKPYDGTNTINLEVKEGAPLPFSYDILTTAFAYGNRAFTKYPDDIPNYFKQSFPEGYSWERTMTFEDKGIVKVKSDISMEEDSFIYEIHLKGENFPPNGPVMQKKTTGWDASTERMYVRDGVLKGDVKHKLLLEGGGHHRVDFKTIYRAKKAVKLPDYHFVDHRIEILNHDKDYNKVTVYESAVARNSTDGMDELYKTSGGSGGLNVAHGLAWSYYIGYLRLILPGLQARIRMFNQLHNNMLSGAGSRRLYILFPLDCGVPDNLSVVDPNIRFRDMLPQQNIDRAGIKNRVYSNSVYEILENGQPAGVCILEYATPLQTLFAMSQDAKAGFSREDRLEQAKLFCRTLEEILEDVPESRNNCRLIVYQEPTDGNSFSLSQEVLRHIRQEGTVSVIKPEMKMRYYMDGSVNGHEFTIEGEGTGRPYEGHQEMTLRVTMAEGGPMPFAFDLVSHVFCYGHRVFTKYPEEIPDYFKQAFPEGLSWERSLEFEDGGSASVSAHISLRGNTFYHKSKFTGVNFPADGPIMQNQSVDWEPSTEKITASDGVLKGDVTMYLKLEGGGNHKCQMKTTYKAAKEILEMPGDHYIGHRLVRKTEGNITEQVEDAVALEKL

[7] = target: T5, BioSTING (mTFP-GGSGG-murine STING CTD (L152-E335)-mKO2 FRET fusion; SEQ ID NO:34, CDN binding domain SEQ ID NO:33) (Mus musculus, UniProt Q3TBT3); assay: DRaCALA radioactive nucleotide binding assay, BioSTING; conditions: 500 μM unlabeled nucleotide, ~1 nM [32P] 2′3′-cGAMP
T5 construct: His tag (inferred from Ni-NTA purification and the pET15b vector); made in house; host or cells: E. coli Rosetta (DE3)pLysS
T5 sequence (Q3TBT3 with tags, fused parts or gaps): T4 sequence (Q3TBT3 with tags, fused parts or gaps)
Source text: (§1) FIGS. 1A-1H. BioSTING Design and Optimization. (1A) Schematic representation of full-length STING (top) and BioSTING with additional GGSGG linker between mTFP and STING-CTD (bottom). Abbreviations are defined as follows: TM (transmembrane region), DD (dimerization domain), CBD (CDN binding domain), and CTT (C-terminal tail). (1B) Overlay and structural alignment of human STING CTD in apo (“blue”) and c-di-GMP bound (“gray”) states (PDB 4F5E and 4F5D, respectively). […] The N and C-terminal helices of the CTD are highlighted with the terminal residues in red and their associated displacement following ligand binding labeled in angstroms. (1C) Model of the FRET increase which occurs upon CDN binding. Generated with Biorender.com. […] In all panels, individual data points of n=2 biological replicates are shown.
(§2) Finally, the dissociation kinetics were monitored by determining the rate that cold nucleotide could compete off bound radioactive nucleotide. […] [^32P] […] Binding assays were performed in binding buffer [40 mM Tris pH 7.5, 100 mM NaCl, 20 mM MgCl2] at room temperature.

[8] = target: T6, murine STING CTD (mSTING-CTD; CDN binding domain SEQ ID NO:33) (Mus musculus, UniProt Q3TBT3); assay: DRaCALA radioactive nucleotide binding assay, STING-CTD; conditions: 500 μM unlabeled nucleotide, ~1 nM [32P] 2′3′-cGAMP
T6 construct: 6xHis; made in house; host or cells: E. coli Rosetta (DE3)pLysS
T6 sequence (Q3TBT3 134-378 limits assumed): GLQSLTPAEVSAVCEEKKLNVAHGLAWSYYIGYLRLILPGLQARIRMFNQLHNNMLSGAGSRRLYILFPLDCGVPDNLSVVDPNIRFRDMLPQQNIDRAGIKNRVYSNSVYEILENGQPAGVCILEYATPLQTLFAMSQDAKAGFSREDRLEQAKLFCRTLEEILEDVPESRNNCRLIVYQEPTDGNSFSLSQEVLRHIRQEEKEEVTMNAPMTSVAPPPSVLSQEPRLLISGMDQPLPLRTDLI
Source text: as §1
FIGS. 6A and 6B. BioSTING development and characterization.
as §2

[9] = target: T7, cGAS (recombinant SUMO-mcGAS) (Mus musculus, UniProt Q8C6L5); assay: cGAS activity assay measuring 2′3′-cGAMP production using BioSTING; format: biochemical; conditions: fixed cGAS; 250 μM ATP, 250 μM GTP, 50 ng ISD; 37° C.
T7 construct: product read by BioSTING
Protocol: FIGS. 2A-2F. Real time measurement of CDN synthesis and determination of CDN levels from cellular extracts. […]. In panels (2B)-(2D) and (2F), data are presented as mean±s.d. of n=3 (2B, 2F) or n=8 (2C, 2D) biological replicates.
BioSTING FRET assays are carried out in a 96-well format using a fluorescent plate reader making it amenable to in vitro high throughput screening efforts (FIG. 7B). […]. In addition to screening for modulators of CDN synthase activity, BioSTING could also potentially be used to screen directly for STING agonists and antagonists.
Enzyme assays were initiated by the addition of 1 mM ATP, 1 mM GTP and 1 μg ISD (FIGS. 2B, 7A, and 7B) or by the addition of 250 μM ATP, 250 μM GTP, and 50 ng ISD (FIGS. 2C, 2D, and 7C).

cGAS = conditions: literature value (Pfizer); read-out: reported IC50; cited from earlier work
[10] = excess (500 μM) unlabeled c-di-AMP, DRaCALA

T7 sequence (Q8C6L5 whole entry): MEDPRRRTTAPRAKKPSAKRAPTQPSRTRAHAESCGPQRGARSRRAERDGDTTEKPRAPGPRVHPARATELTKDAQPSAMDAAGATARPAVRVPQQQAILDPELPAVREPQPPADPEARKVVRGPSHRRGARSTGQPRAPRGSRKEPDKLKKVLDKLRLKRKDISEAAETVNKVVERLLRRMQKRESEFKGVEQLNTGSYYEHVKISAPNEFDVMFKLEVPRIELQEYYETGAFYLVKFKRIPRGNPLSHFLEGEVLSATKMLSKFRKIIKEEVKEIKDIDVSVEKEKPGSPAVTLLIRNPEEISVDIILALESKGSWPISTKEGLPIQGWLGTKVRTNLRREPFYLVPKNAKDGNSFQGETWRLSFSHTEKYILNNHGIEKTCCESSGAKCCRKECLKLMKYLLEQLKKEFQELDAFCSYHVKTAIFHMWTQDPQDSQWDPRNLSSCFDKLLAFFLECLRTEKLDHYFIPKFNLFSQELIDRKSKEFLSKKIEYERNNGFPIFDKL

**Q.** For `Nc1ncnc2c1ncn2[C@@H]1O[C@@H]2COP(=O)(O)O[C@H]3[C@@H](O)[C@H](n4cnc5c(N)ncnc54)O[C@@H]3COP(=O)(O)O[C@H]2[C@H]1O` [3′3′-c-di-AMP, 3′3′-cyclic di-adenosine monophosphate], which “FRET response upon the addition of c-di-AMP” value [1] is on record?
**A.** The value was “no FRET response was observed”.

**Q.** And the “affinity for STING relative to 2′3′-cGAMP” value (STING)?
**A.** Its value is “markedly reduced affinities”.

**Q.** And the EC50 [2]?
**A.** The EC50 was 0.38 µM.

**Q.** And the “kon (less than the sampling limit)” value ([2]; FRET responses stable immediately upon addition of c-di-AMP)?
**A.** Its value is under 10 s.

**Q.** What about the Emax ([2]; read-out: FRET increase) of the same compound?
**A.** Its Emax is 23%.

**Q.** What about the c-di-AMP binding [3] of the same compound?
**A.** The c-di-AMP binding was “c-di-AMP bound to CDA5 but not the Y34A CDA5 point mutant control”.

**Q.** And the “FRET increase upon the addition of c-di-AMP” value [4]?
**A.** The value was “CDA5 but not Y34A CDA5 produced a robust FRET increase”.

**Q.** And the Kd [5]?
**A.** The Kd was 5.87 µM.

**Q.** And the “competition of bound [32P] c-di-AMP by unlabeled nucleotide” value [5]?
**A.** Its value is “only unlabeled c-di-AMP”.

**Q.** And the “koff (time for competition by unlabeled c-di-AMP)” value [5, 10]?
**A.** The value was “completely within two seconds”.

**Q.** And the Kd [6]?
**A.** Its Kd is 4.83 µM.

**Q.** What about the “competition of bound [32P] c-di-AMP by unlabeled nucleotide” value [6] of the same compound?
**A.** The value was “only unlabeled c-di-AMP”.

**Q.** And the “koff (time for competition by unlabeled c-di-AMP)” value [6, 10]?
**A.** The value was “completely within two seconds”.

**Q.** Which “affinity for STING relative to 2′3′-cGAMP” value (STING) does the source give for `Nc1nc2c(ncn2[C@@H]2O[C@@H]3COP(=O)(O)O[C@H]4[C@@H](O)[C@H](n5cnc6c(N)ncnc65)O[C@@H]4COP(=O)(O)O[C@H]3[C@H]2O)c(=O)[nH]1` [3′3′-cGAMP, 3′,3′-cyclic GMP AMP] here?
**A.** The value was “markedly reduced affinities”.

**Q.** For `Nc1ncnc2c1ncn2[C@@H]1O[C@H](COP(=O)(O)OP(=O)(O)OP(=O)(O)O)[C@@H](O)[C@H]1O` [ATP], which “competing off bound [32P] 2′3′-cGAMP” value (BioSTING) is on record?
**A.** The value was “not”.

**Q.** And the “competition of bound [32P] 2′3′-cGAMP by unlabeled nucleotide” value (“competition of bound [32P] 2′3′-cGAMP” for short) [7]?
**A.** The value was “not ATP, GTP, cAMP, or cGMP could compete off”.

**Q.** What about the “competition of bound [32P] 2′3′-cGAMP” value [8] of the same compound?
**A.** The value was “not ATP, GTP, cAMP, or cGMP could compete off”.

**Q.** With `Nc1nc2c(ncn2[C@@H]2O[C@H](COP(=O)(O)OP(=O)(O)OP(=O)(O)O)[C@@H](O)[C@H]2O)c(=O)[nH]1` [GTP] as the compound, how does the “competing off bound [32P] 2′3′-cGAMP” value (BioSTING) read?
**A.** Its value is “not”.

**Q.** And the “competition of bound [32P] 2′3′-cGAMP” value [7]?
**A.** Its value is “not ATP, GTP, cAMP, or cGMP could compete off”.

**Q.** What about the “competition of bound [32P] 2′3′-cGAMP” value [8] of the same compound?
**A.** Its value is “not ATP, GTP, cAMP, or cGMP could compete off”.

**Q.** What does the source list for `O=C(NC1CCCCC1C(=O)O)c1cnn2c(O)cc(-c3ccccc3)nc12` (centres unmarked) [PF-06928215]?
**A.** IC50 [9]: ~12 µM; IC50 (cGAS): 5 µM

**Q.** With `Nc1nc2c(ncn2[C@@H]2O[C@@H]3COP(=O)(O)O[C@H]4[C@@H](O)[C@H](n5cnc6c(=O)[nH]c(N)nc65)O[C@@H]4COP(=O)(O)O[C@H]3[C@H]2O)c(=O)[nH]1` [c-di-GMP, 3′,3′-cyclic di-GMP] as the compound, how does the “affinity for STING relative to 2′3′-cGAMP” value (STING) read?
**A.** The value was “markedly reduced affinities”.

**Q.** Which results are given for `Nc1nc2c(ncn2[C@@H]2O[C@@H]3COP(=O)(O)O[C@H]3[C@H]2O)c(=O)[nH]1` [cGMP]?
**A.** competing off bound [32P] 2′3′-cGAMP (BioSTING): not; competition of bound [32P] 2′3′-cGAMP by unlabeled nucleotide [7]: not ATP, GTP, cAMP, or cGMP could compete off; competition of bound [32P] 2′3′-cGAMP by unlabeled nucleotide [8]: not ATP, GTP, cAMP, or cGMP could compete off
